From ChEMBL document CHEMBL1201862, “PubChem BioAssay data set” (2004)
Active and inactive are the calls of the source.

Experiments:
[1] = molecular target: Mothers against decapentaplegic homolog 3 (Homo sapiens, UniProt P84022); experiment: blockers of Smad3 complex formation in lysate – cell lysate, secondary confirmation, chemiluminescent ELISA, HEK293 lysate, dose response (AID 1058); assay type: functional
[2] = NIH-3T3 fibroblast cytotoxicity, dose response, cytotoxicity control, cell-based, fluorescence, Alamar Blue, secondary assay (AID 2327); assay type: functional;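 note: NIH-3T3 mouse fibroblasts cultured with fluconazole at 8 µg/mL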
Beta-galactosidase = Beta-galactosidase (Escherichia coli, UniProt Q8VNN2); experiment: PubChem AID 485352; assay type: functional
Chain of Beta-galactosidase (Q8VNN2 whole entry): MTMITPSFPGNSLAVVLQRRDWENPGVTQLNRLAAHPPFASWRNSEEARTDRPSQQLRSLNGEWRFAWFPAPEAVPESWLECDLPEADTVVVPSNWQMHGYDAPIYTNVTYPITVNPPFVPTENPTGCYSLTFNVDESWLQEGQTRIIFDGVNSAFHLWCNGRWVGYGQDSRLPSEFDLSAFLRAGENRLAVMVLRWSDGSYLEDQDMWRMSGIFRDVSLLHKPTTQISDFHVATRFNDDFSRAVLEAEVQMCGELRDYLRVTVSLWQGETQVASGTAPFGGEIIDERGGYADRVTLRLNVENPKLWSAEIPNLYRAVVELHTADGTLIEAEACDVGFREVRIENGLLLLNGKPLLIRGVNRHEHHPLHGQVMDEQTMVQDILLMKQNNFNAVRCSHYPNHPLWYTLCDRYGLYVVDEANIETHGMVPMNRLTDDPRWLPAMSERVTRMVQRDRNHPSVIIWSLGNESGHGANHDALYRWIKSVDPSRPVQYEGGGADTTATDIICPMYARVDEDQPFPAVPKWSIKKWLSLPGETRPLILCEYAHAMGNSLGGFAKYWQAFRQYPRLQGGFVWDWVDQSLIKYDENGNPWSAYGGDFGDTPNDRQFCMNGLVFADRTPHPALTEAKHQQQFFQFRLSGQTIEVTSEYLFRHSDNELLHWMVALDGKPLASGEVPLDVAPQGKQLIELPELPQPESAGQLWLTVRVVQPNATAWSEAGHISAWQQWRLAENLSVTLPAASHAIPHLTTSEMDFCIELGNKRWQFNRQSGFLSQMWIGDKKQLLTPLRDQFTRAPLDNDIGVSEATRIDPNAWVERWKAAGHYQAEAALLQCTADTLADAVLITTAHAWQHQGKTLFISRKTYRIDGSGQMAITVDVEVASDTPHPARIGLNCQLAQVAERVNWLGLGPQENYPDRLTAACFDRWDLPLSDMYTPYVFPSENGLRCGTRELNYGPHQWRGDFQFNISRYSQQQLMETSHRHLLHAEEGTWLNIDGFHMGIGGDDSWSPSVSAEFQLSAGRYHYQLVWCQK

Vero = experiment: mammalian cell viability reduction – secondary assay, cytotoxicity control for West Nile virus antiviral project, dose response (AID 1650); assay type: functional; conditions: Chlorocebus sabaeus
[3] = fluconazole-exposed Candida albicans growth modulators – fluorescence, retest, confirmation (AID 2467); assay type: functional, cell-based
[4] = molecular target: T1, Type-1 angiotensin II receptor (Homo sapiens, UniProt P30556); experiment: antagonism of angiotensin II type 1 receptor – cell-based, uHTS hits, selectivity assay for APJ receptor antagonist project, dose response (AID 463214); assay type: functional;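 note: antagonist potency against angiotensin II stimulated AT1 response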
T1 sequence (P30556 whole entry): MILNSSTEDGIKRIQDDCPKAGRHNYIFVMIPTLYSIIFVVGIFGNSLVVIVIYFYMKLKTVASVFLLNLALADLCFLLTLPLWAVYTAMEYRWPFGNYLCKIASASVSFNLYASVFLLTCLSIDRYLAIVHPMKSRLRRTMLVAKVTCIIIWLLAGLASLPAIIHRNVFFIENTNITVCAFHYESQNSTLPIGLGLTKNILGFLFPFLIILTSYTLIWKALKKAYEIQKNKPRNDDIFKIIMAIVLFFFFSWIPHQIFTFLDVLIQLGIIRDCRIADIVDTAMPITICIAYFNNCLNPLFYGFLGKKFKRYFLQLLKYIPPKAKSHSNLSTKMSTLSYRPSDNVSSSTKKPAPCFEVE

[5] = molecular target: T2, Short transient receptor potential channel 4 (Mus musculus, UniProt Q9QUQ5); experiment: calcium entry via TRPC4 opening agents – cell-based, HEK293 TRPC4/mu-opioid, Fluo-4 calcium, dose response (AID 434937); assay type: functional
T2 sequence (Q9QUQ5 whole entry): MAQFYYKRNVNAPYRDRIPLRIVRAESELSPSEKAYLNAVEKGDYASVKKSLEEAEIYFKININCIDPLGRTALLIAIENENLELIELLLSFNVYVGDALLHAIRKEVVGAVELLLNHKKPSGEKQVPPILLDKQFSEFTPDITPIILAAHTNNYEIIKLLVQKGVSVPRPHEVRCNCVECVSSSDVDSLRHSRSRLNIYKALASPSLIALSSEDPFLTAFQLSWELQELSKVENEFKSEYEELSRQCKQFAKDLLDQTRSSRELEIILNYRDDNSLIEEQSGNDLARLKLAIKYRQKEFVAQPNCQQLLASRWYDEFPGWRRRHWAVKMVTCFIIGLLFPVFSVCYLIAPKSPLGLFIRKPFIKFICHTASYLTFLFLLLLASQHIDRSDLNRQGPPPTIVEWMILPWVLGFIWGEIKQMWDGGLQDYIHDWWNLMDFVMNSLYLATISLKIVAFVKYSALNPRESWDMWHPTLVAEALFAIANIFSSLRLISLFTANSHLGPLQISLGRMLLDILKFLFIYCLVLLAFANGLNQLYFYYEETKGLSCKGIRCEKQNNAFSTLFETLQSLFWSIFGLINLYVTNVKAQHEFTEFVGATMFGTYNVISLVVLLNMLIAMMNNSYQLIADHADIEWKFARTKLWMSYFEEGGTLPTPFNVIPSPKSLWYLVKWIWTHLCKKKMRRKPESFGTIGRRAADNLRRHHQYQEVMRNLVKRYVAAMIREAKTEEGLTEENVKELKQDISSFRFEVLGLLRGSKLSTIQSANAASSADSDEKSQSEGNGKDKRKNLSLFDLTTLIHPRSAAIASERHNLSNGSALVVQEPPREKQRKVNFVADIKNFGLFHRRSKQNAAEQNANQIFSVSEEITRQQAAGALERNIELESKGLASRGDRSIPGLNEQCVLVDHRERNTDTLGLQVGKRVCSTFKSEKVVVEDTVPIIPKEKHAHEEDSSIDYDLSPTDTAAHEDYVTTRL

INS1 = experiment: INS-1E survival protection against cytokine death – cell-based, luminescence, retest, dose response (AID 449756); assay type: functional; conditions: Rattus norvegicus;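 note: cell death triggered by IL-1 beta plus TNF-alpha plus IFN-gamma mixture; protective hits raise ATP signal compared with cytokine alone wells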
Cytochrome P450 2D6 = Cytochrome P450 2D6 (Homo sapiens, UniProt P10635); experiment: qHTS Assay for Inhibitors and Substrates of Cytochrome P450 2D6. [Related pubchem assays: 410 ]; assay type: ADME; conditions: read-out: Potency
Chain of Cytochrome P450 2D6 (P10635 whole entry): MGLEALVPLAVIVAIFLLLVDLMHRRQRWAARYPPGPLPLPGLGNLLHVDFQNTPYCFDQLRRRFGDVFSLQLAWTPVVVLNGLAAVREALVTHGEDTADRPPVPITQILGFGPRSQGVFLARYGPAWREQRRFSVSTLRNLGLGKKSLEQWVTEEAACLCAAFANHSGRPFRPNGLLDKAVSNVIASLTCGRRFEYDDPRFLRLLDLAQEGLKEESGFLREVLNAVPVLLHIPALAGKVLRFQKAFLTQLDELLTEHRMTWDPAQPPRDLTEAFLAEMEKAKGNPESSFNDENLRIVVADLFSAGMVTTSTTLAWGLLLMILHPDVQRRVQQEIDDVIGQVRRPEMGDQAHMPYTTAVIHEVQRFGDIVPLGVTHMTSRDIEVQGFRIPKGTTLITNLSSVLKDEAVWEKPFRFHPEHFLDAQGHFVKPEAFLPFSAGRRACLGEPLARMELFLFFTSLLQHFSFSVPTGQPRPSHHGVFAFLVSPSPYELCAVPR

Leucine aminopeptidase = molecular target: T3, Leucine aminopeptidase (Plasmodium falciparum 3D7, UniProt Q8IL11); experiment: P. falciparum M17LAP inhibitors, primary screen, biochemical, fluorogenic H-Leu-NHMec substrate, 1536-well (AID 1619); assay type: functional
T3 sequence (Q8IL11 whole entry): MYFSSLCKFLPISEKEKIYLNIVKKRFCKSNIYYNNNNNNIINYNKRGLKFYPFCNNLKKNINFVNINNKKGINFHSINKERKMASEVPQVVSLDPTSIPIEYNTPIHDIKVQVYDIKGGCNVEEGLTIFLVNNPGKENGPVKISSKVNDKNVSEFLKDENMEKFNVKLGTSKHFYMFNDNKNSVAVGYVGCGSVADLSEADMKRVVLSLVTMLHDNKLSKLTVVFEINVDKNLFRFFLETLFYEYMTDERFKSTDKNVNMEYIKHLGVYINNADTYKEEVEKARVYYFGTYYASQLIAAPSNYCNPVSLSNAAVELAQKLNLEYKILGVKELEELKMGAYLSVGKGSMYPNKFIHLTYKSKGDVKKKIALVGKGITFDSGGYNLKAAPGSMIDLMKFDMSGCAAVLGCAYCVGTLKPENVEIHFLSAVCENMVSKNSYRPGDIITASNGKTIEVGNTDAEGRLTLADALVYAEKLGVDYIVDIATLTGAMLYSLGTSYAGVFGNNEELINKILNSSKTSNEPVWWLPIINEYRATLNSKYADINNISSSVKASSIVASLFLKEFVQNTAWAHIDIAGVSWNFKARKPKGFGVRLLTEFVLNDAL

Aspartyl aminopeptidase = molecular target: T4, Aspartyl aminopeptidase (Plasmodium falciparum 3D7, UniProt Q8I2J3); experiment: Counterscreen for inhibitors of M1 and M17 aminopeptidases: QFRET-based biochemical high throughput dose response assay for inhibitors of the Plasmodium falciparum M18 Aspartyl Aminopeptidase (PFM18AAP). [Related PubChem assays: 1619 (Screening assay (M17LAP inhibitors).), 1445 (Screening assay (M1AAP inhibitors).)]
T4 sequence (Q8I2J3 whole entry): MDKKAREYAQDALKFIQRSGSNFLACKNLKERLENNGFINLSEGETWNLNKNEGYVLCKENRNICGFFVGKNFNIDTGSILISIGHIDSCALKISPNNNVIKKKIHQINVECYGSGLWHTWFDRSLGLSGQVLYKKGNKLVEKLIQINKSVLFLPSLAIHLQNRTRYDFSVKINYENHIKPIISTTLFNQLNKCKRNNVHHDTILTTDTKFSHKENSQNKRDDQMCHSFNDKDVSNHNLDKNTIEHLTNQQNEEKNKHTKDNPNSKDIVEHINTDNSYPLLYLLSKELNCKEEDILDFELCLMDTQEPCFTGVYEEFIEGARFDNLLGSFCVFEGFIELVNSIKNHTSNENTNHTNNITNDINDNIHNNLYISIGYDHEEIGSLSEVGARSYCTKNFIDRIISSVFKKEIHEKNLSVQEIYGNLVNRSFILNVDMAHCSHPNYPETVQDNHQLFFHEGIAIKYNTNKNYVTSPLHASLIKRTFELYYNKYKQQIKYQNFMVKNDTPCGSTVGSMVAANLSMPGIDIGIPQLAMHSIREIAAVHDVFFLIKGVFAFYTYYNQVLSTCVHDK

Procathepsin L = Procathepsin L (Homo sapiens, UniProt P07711); experiment: CTSL1 protease inhibition – biochemical, QFRET, 1536-well, counter-screen for M1/M17 aminopeptidase inhibitor project, dose response (AID 2214)
Chain of Procathepsin L (P07711 whole entry): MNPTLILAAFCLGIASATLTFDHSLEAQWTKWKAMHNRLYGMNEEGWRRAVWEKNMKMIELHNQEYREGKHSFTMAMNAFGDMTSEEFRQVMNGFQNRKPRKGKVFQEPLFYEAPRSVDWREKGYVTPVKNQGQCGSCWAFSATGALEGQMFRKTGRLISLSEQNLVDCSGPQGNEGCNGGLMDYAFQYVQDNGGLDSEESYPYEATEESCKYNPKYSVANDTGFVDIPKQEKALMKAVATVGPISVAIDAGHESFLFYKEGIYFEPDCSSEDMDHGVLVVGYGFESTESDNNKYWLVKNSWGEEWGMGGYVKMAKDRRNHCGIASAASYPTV

[6] = molecular target: T5, Alkaline phosphatase, tissue-nonspecific isozyme (Homo sapiens, UniProt P05186)
T5 sequence (P05186 whole entry): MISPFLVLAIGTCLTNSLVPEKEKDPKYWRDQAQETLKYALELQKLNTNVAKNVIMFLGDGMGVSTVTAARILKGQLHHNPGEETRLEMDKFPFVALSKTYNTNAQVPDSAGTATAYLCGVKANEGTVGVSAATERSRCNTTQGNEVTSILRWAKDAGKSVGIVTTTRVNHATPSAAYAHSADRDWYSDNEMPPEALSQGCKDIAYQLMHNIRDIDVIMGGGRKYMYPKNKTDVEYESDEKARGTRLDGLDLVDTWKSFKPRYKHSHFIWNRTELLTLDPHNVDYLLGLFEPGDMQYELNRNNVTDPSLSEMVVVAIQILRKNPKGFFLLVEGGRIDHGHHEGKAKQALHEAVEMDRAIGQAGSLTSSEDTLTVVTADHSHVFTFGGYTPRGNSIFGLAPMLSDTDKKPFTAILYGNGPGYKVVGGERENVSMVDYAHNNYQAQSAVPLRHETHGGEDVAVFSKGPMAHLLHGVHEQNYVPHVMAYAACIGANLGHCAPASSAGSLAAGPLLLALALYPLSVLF

[7] = molecular target: G-protein coupled receptor 55 (Homo sapiens, UniProt Q9Y2T6); experiment: inhibition of LPI-stimulated GPR55 beta-arrestin translocation – imaging, U2OS, beta-arrestin-GFP, LPI agonist, primary screen (AID 2013); assay type: functional;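 note: antagonist potency measured as reduced agonist-driven arrestin aggregation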
Chain of G-protein coupled receptor 55 (Q9Y2T6 whole entry): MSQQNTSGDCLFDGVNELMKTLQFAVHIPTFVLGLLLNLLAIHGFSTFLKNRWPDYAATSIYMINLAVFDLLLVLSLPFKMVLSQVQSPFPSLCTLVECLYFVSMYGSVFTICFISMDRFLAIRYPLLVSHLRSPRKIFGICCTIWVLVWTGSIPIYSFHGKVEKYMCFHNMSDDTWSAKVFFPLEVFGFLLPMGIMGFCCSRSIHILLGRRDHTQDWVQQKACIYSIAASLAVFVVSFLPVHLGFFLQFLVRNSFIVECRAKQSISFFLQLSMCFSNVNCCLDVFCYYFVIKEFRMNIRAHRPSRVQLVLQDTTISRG

[8] = Luminescence Cell-Based Dose Retest to Confirm Inhibitors of Cancer Stem Cells. [Related pubchem assays (depositor defined):AID2717, AID2721]; assay type: functional; conditions: Homo sapiens
[9] = molecular target: Heat shock protein HSP 90-alpha (Homo sapiens, UniProt P07900); assay type: functional, organism-based
[10] = IC50 of Artemis nuclease activity blockers – biochemical, fluorescence intensity, dose response (AID 720701); assay type: functional;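 note: Artemis endonuclease enzyme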
[11] = A Cell Based Secondary Assay To Explore Cytotoxicity of Compounds that Sensitize Mycobacterium Tuberculosis to Beta-Lactam Antibiotics.; assay type: functional
[12] = molecular target: T6, Microphthalmia-associated transcription factor (Homo sapiens, UniProt O75030); experiment: reducers of TRPM1 reporter luminescence, concentration series – cell-based, SK-MEL-5, cherry-picked, set 3, MITF inhibitor project, dose response (AID 493073); assay type: functional;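 note: SK-MEL-5 melanoma cells with luciferase driven by the MITF target TRPM1 promoter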
T6 sequence (O75030 whole entry): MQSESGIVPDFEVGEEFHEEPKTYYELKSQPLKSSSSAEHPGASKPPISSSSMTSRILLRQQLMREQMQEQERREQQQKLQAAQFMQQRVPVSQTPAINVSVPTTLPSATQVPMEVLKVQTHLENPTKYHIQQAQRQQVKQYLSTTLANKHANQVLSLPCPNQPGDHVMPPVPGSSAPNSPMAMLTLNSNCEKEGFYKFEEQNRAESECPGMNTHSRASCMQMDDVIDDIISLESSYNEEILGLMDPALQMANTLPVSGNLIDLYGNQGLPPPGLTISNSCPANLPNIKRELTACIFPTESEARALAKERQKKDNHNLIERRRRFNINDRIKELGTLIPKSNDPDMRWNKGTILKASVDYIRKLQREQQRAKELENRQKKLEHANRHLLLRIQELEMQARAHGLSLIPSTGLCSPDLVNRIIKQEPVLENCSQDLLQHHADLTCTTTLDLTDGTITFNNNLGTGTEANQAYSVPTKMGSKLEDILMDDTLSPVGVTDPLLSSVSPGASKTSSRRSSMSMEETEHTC

Paired box protein Pax-8 = Paired box protein Pax-8 (Homo sapiens, UniProt Q06710); experiment: PAX8 transcriptional activity inhibition in RMG-I – RMG-I cells, luciferase, cherry-pick, dose response (AID 687027); assay type: functional, cell-based;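 note: luciferase reporter driven by Pax8 target thyroperoxidase promoter measured by SteadyGlo luminescence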
Chain of Paired box protein Pax-8 (Q06710 whole entry): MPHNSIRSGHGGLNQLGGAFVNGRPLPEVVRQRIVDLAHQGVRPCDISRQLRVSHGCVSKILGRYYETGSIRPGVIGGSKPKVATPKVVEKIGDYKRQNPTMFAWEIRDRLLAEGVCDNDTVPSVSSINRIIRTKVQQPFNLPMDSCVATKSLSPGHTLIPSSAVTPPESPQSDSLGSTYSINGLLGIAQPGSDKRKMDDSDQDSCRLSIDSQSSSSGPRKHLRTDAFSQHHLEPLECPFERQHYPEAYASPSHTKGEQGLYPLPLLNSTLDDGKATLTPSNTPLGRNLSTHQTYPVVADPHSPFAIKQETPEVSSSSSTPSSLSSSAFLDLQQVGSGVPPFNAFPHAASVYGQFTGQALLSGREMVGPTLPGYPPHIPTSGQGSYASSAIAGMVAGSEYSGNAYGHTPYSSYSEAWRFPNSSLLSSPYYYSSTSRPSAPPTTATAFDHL

Chain of Mothers against decapentaplegic homolog 3 (P84022 whole entry): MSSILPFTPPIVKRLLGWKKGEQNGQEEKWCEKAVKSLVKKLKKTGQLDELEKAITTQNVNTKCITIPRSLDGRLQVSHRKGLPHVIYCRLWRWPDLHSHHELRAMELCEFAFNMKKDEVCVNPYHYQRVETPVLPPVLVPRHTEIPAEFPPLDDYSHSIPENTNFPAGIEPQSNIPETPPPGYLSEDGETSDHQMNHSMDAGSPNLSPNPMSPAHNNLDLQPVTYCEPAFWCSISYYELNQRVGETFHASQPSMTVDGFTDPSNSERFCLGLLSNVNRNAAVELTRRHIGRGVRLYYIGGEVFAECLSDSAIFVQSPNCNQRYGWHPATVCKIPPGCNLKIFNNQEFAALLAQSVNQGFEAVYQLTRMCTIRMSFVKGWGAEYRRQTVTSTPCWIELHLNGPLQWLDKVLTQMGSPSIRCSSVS

SMILES: COc1ccc(C(c2cc3c(cc2O)OCO3)N2CCOCC2)c(OC)c1 (stereo unspecified)
- IC50 [1]: > 40 µM (not active)

SMILES: CC(C)(C)C(=O)NC(=S)NNC(=O)c1ccc(-c2ccccc2)cc1
- EC50 [2]: 3.25 µM (active)
- EC50 (Beta-galactosidase): > 40 µM (inactive)
- CC50 (Vero): 4.57 µM (active)
- EC50 [3]: 0.694 µM (active)
- IC50 [4]: 10.8 µM (active)
- EC50 [5]: 1.5 µM (active)
- AC50 (INS1): 2.14 µM (active)

SMILES: COc1cc2c(cc1O)CCN[C@H]2C
- AC50 (Cytochrome P450 2D6): 20 µM (inconclusive)

SMILES: O=C1C=CC(=C(c2ccc(O)c(O)c2)c2ccccc2S(=O)(=O)O)C=C1O [PYROCATECHOL VIOLET]
- IC50 [1]: 3.28 µM (not active)

SMILES: COC(=O)c1c(-c2cc(C)ccc2C)csc1NC(=O)C1CC=CCC1C(=O)O (stereo unspecified)
- IC50 (Leucine aminopeptidase): < 1 µM (active)
- IC50 (Aspartyl aminopeptidase): > 73.5 µM (not active)
- IC50 (Procathepsin L): > 59.6 µM (not active)

SMILES: c1ccc(-c2c(-c3ccccc3)n(Cc3ccco3)c3ncnc(NCCCn4ccnc4)c23)cc1
- EC50 [6]: 63 µM (not active)
- IC50 [7]: 2.09 µM (active)
- AC50 [8]: 5.23 µM (active)
- AC50 [9]: 2.53 µM (active)
- IC50 [10]: 17.8 µM (active)

SMILES: COc1ccc(OC2C=CC(c3ccccc3)OC2CO)cc1 (stereo unspecified)
- AC50 (Cytochrome P450 2D6): 6.31 µM (inconclusive)

SMILES: C=C1C(=O)O[C@@H]2[C@H]1[C@@H](OC(=O)/C(C)=C/C)C/C(C)=C\C(=O)/C=C(\C)[C@@H]2O
- CC50 [11]: 4.26 µM (active)
- AC50 [12]: 7.07 µM (active)
- AC50 (Paired box protein Pax-8): 4.03 µM (active)

SMILES: Cc1sc(NC(=O)C2CC(Cl)=CCC2C(=O)O)c(C#N)c1C (stereo unspecified)
- IC50 (Leucine aminopeptidase): 1.73 µM (active)
- IC50 (Aspartyl aminopeptidase): > 73.5 µM (not active)
- IC50 (Procathepsin L): > 59.6 µM (not active)

SMILES: CCCCc1ccc(NC(=S)NCCc2ccc(S(N)(=O)=O)cc2)cc1
- EC50 [6]: > 100 µM (not active)
